Results on 12 compounds are retold here after patent publication US11446287B2, “Compounds and methods for EP300 or CBP modulation and indications therefor” (Opna Immuno-Oncology SA, priority 2019, dated 2022).

The target in this experiment is T1, Recombinant human BRD4 containing dual bromodomains (BRD4-BD12 (1-477)) (Homo sapiens, UniProt O60885).
T1 construct: Recombinant human BRD4 containing dual bromodomains (BRD4-BD12 (1-477)); made in house; host or cells: E. coli BL21-CodonPlus (DE3), modified pET vector
As to the kind of experiment: BRD4 Alphascreen binding assay. The protocol: BRD4 Alphascreen Binding Assay
Binding of compounds of Formula (I) with BRD4 was assessed using Alphascreen binding assay. The inhibition of the interaction between BRD4 and its acetylated target protein was measured quantitatively using recombinant BRD4 protein, an acetylated Histone 4 peptide, and AlphaScreen™ technology. In absence of inhibition of the BRD4 protein bound to AlphaScreen™ nickel chelate acceptor beads can interact with the acetylated Histone 4 peptide which was immobilized by the AlphaScreen™ Streptavidin coated beads. This interaction brings donor and acceptor beads in proximity. The close proximity allows the singlet oxygen produced by laser excitation of the donor beads to reach the acceptor beads and generate a luminescence signal. BRD4 inhibitors result in a decrease in the proximity signal through an inhibition of the BRD4—acetylated peptide interaction.
Recombinant human BRD4 containing dual bromodomains (BRD4-BD12 (1-477)) was prepared and purified as described in protein expression and purification session. The peptide was human Histone H41-21K5AcK8AcK12AcK16Ac-Biotin (Anaspec CA, USA).
Protocol for BRD4 assay: All components are prepared in buffer composed of 50 mM HEPES pH 7.5, 50 mM NaCl, 0.01% BSA, 0.01% Triton X-100, 2 mM DTT. Test compounds and DMSO vehicle are diluted 1:50 in buffer and a 4 μL volume was transferred to an Alphaplate. 5.5 μL of Bromodomain protein and 5.5 μL of peptide are added to wells containing 4 μL of various concentrations of test compounds of Formula (I) or DMSO vehicle in an Alphaplate (PerkinElmer GA, USA) and incubated for 1 hour at room temperature. 5 μL donor and acceptor bead mixture was then added with final concentrations of 7.5 μg/ml. 30 minutes after bead addition, Alpha signal was read on the Envision spectrometer (λEx 680 nm, λEm 520-620 nm). Final concentrations of bromodomain proteins and peptide are as shown below.
All data were normalized to the mean of 16 high and 16 low control wells on each plate. A four parameter curve fit of the following formula was then applied: Y=A+((B−A)/(1+((C/x)^D))) Where ‘A’ is the minimum, ‘B’ is the maximum, ‘C’ is the IC50 and ‘D’ is the Hill slope. Protein Expression and Purification
Recombinant human BRD4 containing dual bromodomains (BRD4-BD12 (1-477)) was expressed in E. coli cells (in a modified pET vector) with an N-terminal six-His tag and purified using a combination of both IMAC (Ni-affinity) and size exclusion chromatography steps.
Recombinant BRD4 was expressed using the E. coli strain BL21-CodonPlus (DE3) (Agilent Technologies CA, USA). Cells were grown in Terrific Broth (TB) media to an OD600 of 2.0 at 37° C. at which temperature was reduced to 18° C., protein was induced with 0.1 mM isopropyl-β-D-thiogalactopyranoside (“IPTG”) for 12-18 hours and harvested by centrifugation at 8000×g for 20 minutes. Cells were re-suspended in 40 mM Tris-HCl pH 8.0, 0.5 M NaCl, 25 mM Imidazole, 5% glycerol, 1/200 vol. Protease Inhibitor Cocktail Set III (Calbiochem), 5 mM beta-mercaptoethanol (“BME”), 0.5 mg/mL Lysozyme, and 0.5 mg/mL DNaseI, incubated on ice for 30 minutes and lysed with a cell disruptor (MicroFluidics MA, USA). The lysate was clarified by centrifugation at 20,000×g for 2 hours. The protein was captured with Ni-NTA resin (Life Technologies, USA). Contaminating proteins were washed off with 40 mM Tris-HCl pH 8.0, 0.5 M NaCl, 25 mM Imidazole, 5% glycerol, and 5 mM BME. Following 3× wash steps, protein was eluted step wise into wash buffer containing 50, 100, 150, 500 mM Imidazole. The protein was further purified using Gel Filtration column 16/60 Superdex 200 (GE Biosciences NJ, USA) in 10 mM HEPES pH 8.0, 150 mM NaCl, and 5 mM DTT. Glycerol was added to a final concentration of 12% and the protein was aliquoted and flash-frozen in liquid Nitrogen.
Usually IC50 stands for the midpoint of a concentration-inhibition curve. With `Cc1noc(C)c1-c1cnc2c(c1)c(-c1ccc(C(=O)O)cc1OC1COC1)cn2[C@@H](C)c1ccccn1` [P-0137, (S)-4-(5-(3,5-dimethylisoxazol-4-yl)-1-(1-(pyridin-2-yl)ethyl)-1H-pyrrolo[2,3-b]pyridin-3-yl)-3-(oxetan-3-yloxy)benzoic acid], the IC50 lay in the range of 8 to 1000 µM.
Turning to `Cc1noc(C)c1-c1cnc2c(c1)c(-c1ccc(C(=O)O)cc1OCC1CC1)cn2[C@@H](C)c1ccccn1` [P-0138, (S)-3-(cyclopropylmethoxy)-4-(5-(3,5-dimethylisoxazol-4-yl)-1-(1-(pyridin-2-yl)ethyl)-1H-pyrrolo[2,3-b]pyridin-3-yl)benzoic acid], the IC50 lay within 8 to 1000 µM.
The same measure for `Cc1noc(C)c1-c1cnc2c(c1)c(-c1ccc(C(=O)O)cc1OCc1ccccc1)cn2[C@@H](C)c1ccccn1` [P-0139, (S)-3-(benzyloxy)-4-(5-(3,5-dimethylisoxazol-4-yl)-1-(1-(pyridin-2-yl)ethyl)-1H-pyrrolo[2,3-b]pyridin-3-yl)benzoic acid]: 8 to 1000 µM; for `COc1ccc(C(=O)O)cc1-c1cn(C(C)c2ccccc2)c2cc(-c3c(C)noc3C)cnc12` (stereo not drawn) [P-0140, 3-(6-(3,5-dimethylisoxazol-4-yl)-1-(1-phenylethyl)-1H-pyrrolo[3,2-b]pyridin-3-yl)-4-methoxybenzoic acid]: 8 to 1000 µM.
For the compound `Cc1noc(C)c1-c1cnc2c(-c3cc(C(=O)O)ccc3Cl)cn(C(C)c3ccccc3)c2c1` (stereo not drawn) [P-0141, 4-chloro-3-(6-(3,5-dimethylisoxazol-4-yl)-1-(1-phenylethyl)-1H-pyrrolo[3,2-b]pyridin-3-yl)benzoic acid], the IC50 was in the range of 8 to 1000 µM.
Consider `COc1cc(C(=O)O)ccc1-c1cn([C@@H](C)c2ccccn2)c2cc(-c3c(C)noc3C)cnc12` [P-0142, (S)-4-(6-(3,5-dimethylisoxazol-4-yl)-1-(1-(pyridin-2-yl)ethyl)-1H-pyrrolo[3,2-b]pyridin-3-yl)-3-methoxybenzoic acid], for which the IC50 was 0.0001 to 1 µM.
In the case of `Cc1noc(C)c1-c1cnc2c(CC3CCC3)cn(-c3ccc(O)nc3)c2c1` [P-0143, 5-(3-(cyclobutylmethyl)-6-(3,5-dimethylisoxazol-4-yl)-1H-pyrrolo[3,2-b]pyridin-1-yl)pyridin-2-ol], the IC50 lay within 8 to 1000 µM.
As for `COc1cc(C(=O)O)cc(O)c1-c1cn([C@@H](C)c2ccccn2)c2ncc(-c3c(C)noc3C)cc12` [P-0144, (S)-4-(5-(3,5-dimethylisoxazol-4-yl)-1-(1-(pyridin-2-yl)ethyl)-1H-pyrrolo[2,3-b]pyridin-3-yl)-3-hydroxy-5-methoxybenzoic acid], the IC50 is 8 to 1000 µM.
On to `Cc1noc(C)c1-c1cnc2c(c1)c(-c1ccnc(O)c1)cn2[C@@H](C)c1ccccn1` [P-0145, (S)-4-(5-(3,5-dimethylisoxazol-4-yl)-1-(1-(pyridin-2-yl)ethyl)-1H-pyrrolo[2,3-b]pyridin-3-yl)pyridin-2-ol], for which the IC50 lay within 8 to 1000 µM.
The same measure for `COc1cc(C(=O)O)cc(OC)c1-c1cn([C@@H](C)c2ccccn2)c2cc(-c3c(C)noc3C)cnc12` [P-0146, (S)-4-(6-(3,5-dimethylisoxazol-4-yl)-1-(1-(pyridin-2-yl)ethyl)-1H-pyrrolo[3,2-b]pyridin-3-yl)-3,5-dimethoxybenzoic acid]: 8 to 1000 µM; for `CCOc1cc(C(=O)O)cc(OCC)c1-c1cn([C@@H](C)c2ccccn2)c2ncc(-c3c(C)noc3C)cc12` [P-0147, (S)-4-(5-(3,5-dimethylisoxazol-4-yl)-1-(1-(pyridin-2-yl)ethyl)-1H-pyrrolo[2,3-b]pyridin-3-yl)-3,5-diethoxybenzoic acid]: 8 to 1000 µM; for `CC[C@@H](c1ccccn1)n1cc(-c2cc(C(=O)O)ccc2Cl)c2ncc(-c3c(C)noc3C)cc21` [P-0148, (S)-4-chloro-3-(6-(3,5-dimethylisoxazol-4-yl)-1-(1-(pyridin-2-yl)propyl)-1H-pyrrolo[3,2-b]pyridin-3-yl)benzoic acid]: 1 to 8 µM.
